Laboratory results: the supplement of paper PMC10307832

Assays:
Test in all cases: relative viability (nuclei count vs DMSO), 5 days (fraction); higher = more cells survive
[1] = compound: CC1=NC=CC(=C1)C2=CC=C(C=C2)CC(=O)NC3=CC=C(C=C3)C4=CN=CC=C4 [Wnt-C59] + CS(=O)(=O)N1CCN(Cc2cc3nc(-c4cccc5[nH]ncc45)nc(N4CCOCC4)c3s2)CC1 [Pictilisib] (partner 1 µM)
Summary of the method: (§1)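 Lung cancer cell lines in 1536-well plates got either a single drug or a fixed anchor-drug dose together with five library-drug doses (not always all listed) in √10 steps, by pin tool, on the day after seeding. Nuclei were counted after 5 days, and relative viability is the treated-to-vehicle ratio of nuclei counts. Values are medians of duplicate plates.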

[2] = compound: CS(=O)(=O)CCNCc1ccc(-c2ccc3ncnc(Nc4ccc(OCc5cccc(F)c5)c(Cl)c4)c3c2)o1 [Lapatinib] + CCNC(=O)c1noc(-c2cc(C(C)C)c(O)cc2O)c1-c1ccc(CN2CCOCC2)cc1 [Luminespib] (partner 0.01 µM)
Summary of the method: as §1

[3] = compound: CS(=O)(=O)CCNCc1ccc(-c2ccc3ncnc(Nc4ccc(OCc5cccc(F)c5)c(Cl)c4)c3c2)o1 [Lapatinib] + Cc1cc(Nc2cc(N3CCN(C)CC3)nc(Sc3ccc(NC(=O)C4CC4)cc3)n2)n[nH]1 [Tozasertib] (partner 0.1 µM)
Summary of the method: as §1

[4] = compound: CS(=O)(=O)CCNCc1ccc(-c2ccc3ncnc(Nc4ccc(OCc5cccc(F)c5)c(Cl)c4)c3c2)o1 [Lapatinib] + O=C(c1cc(Cc2n[nH]c(=O)c3ccccc23)ccc1F)N1CCN(C(=O)C2CC2)CC1 [Olaparib] (partner 8 µM)
Summary of the method: as §1

Cell Line | relative viability ([1]; first compound 0.001 µM) | relative viability ([1]; first compound 0.01 µM) | relative viability ([1]; first compound 0.03162 µM) | relative viability ([1]; first compound 0.1 µM) | relative viability ([2]; first compound 0.02 µM) | relative viability ([2]; first compound 0.06325 µM) | relative viability ([2]; first compound 0.2 µM) | relative viability ([2]; first compound 0.6325 µM) | relative viability ([2]; first compound 2 µM) | relative viability ([3]; first compound 0.02 µM) | relative viability ([3]; first compound 0.06325 µM) | relative viability ([3]; first compound 0.2 µM) | relative viability ([3]; first compound 0.6325 µM) | relative viability ([3]; first compound 2 µM) | relative viability ([4]; first compound 0.06325 µM) | relative viability ([4]; first compound 0.2 µM) | relative viability ([4]; first compound 0.6325 µM) | relative viability ([4]; first compound 2 µM) | relative viability ([4]; first compound 0.02 µM)
EMC-BAC-2 | 0.5 | 0.491 | 0.463 | 0.453 | 1.09 | 0.998 | 1.19 | 1.06 | 1.08 | 0.309 | 0.344 | 0.309 | 0.319 | 0.299 | 0.447 | 0.56 | 0.537 | 0.528 | 
NCI-H358 | 0.311 | 0.345 | 0.314 | 0.354 |  | 0.159 |  | 0.255 | 0.173 | 0.0946 | 0.0876 | 0.0913 | 0.078 | 0.0817 | 0.476 | 0.385 | 0.377 | 0.205 | 0.535
NCI-H2087 | 0.94 | 0.816 | 0.819 | 0.907 |  | 0.169 | 0.169 | 0.162 | 0.161 |  | 0.233 | 0.267 | 0.186 | 0.215 | 0.412 | 0.625 | 0.516 | 0.503 | 0.56
NCI-H1355 | 0.486 | 0.325 | 0.38 | 0.393 |  | 0.646 | 0.634 | 0.685 | 0.441 |  | 0.416 | 0.498 | 0.494 | 0.26 | 0.594 | 0.699 | 0.688 | 0.439 | 0.719
SK-MES-1 | 0.392 | 0.368 | 0.305 | 0.322 | 0.738 | 0.665 | 0.625 | 0.482 | 0.326 | 0.894 | 0.996 | 1.07 | 0.943 | 0.495 | 0.699 | 0.569 | 0.464 | 0.221 | 0.726
NCI-H1793 | 0.215 | 0.22 | 0.3 | 0.444 |  | 0.33 | 0.174 | 0.158 | 0.143 |  | 0.286 | 0.213 | 0.185 | 0.142 | 0.363 | 0.598 | 0.537 | 0.449 | 
COR-L23 | 0.745 | 0.653 | 0.818 | 0.79 | 0.715 | 0.688 | 0.731 | 0.646 | 0.567 | 0.149 | 0.131 | 0.152 | 0.165 | 0.109 | 0.358 | 0.33 | 0.309 | 0.275 | 0.329
HCC-15 | 0.74 | 0.711 | 0.732 | 0.723 |  | 0.425 | 0.303 | 0.293 | 0.235 |  | 0.382 | 0.371 | 0.424 | 0.283 | 0.706 | 0.689 | 0.659 | 0.621 | 
NCI-H2023 | 0.27 | 0.244 | 0.238 | 0.235 | 0.696 | 0.593 | 0.723 | 0.751 | 0.619 | 0.249 |  | 0.191 | 0.204 | 0.137 | 0.455 | 0.436 | 0.444 | 0.397 | 0.435
ABC-1 | 0.685 | 0.817 | 0.76 | 0.6 |  |  | 0.509 |  | 0.64 | 0.155 | 0.187 | 0.156 | 0.155 | 0.16 | 0.882 |  | 0.781 | 0.9 | 0.983
HARA | 0.32 | 0.523 | 0.402 | 0.6 |  | 0.58 | 0.54 | 0.499 | 0.399 |  | 0.0893 | 0.0933 | 0.0794 | 0.119 | 0.552 | 0.957 | 0.618 | 0.402 | 0.712
EKVX | 0.428 | 0.362 | 0.394 | 0.344 | 0.712 | 0.804 | 0.767 | 0.853 | 0.447 | 0.366 | 0.333 | 0.448 | 0.273 | 0.143 | 0.694 | 0.77 | 0.602 | 0.337 | 
NCI-H1395 | 0.656 | 0.608 | 0.655 | 0.664 | 0.849 | 0.761 | 0.706 | 0.599 | 0.663 | 0.716 | 0.774 | 0.701 | 0.683 | 0.677 | 0.455 | 0.459 | 0.522 | 0.415 | 
BEN | 0.524 | 0.667 | 0.613 | 0.596 |  | 0.564 | 0.229 | 0.402 | 0.417 |  | 0.513 | 0.51 | 0.515 | 0.351 | 1 | 1.07 | 1.01 | 0.837 | 1.13
LCLC-103H | 0.663 | 0.62 | 0.634 | 0.651 | 0.954 | 0.82 | 0.877 | 0.891 | 0.852 | 0.419 | 0.448 | 0.455 | 0.407 | 0.384 | 0.664 | 0.762 | 0.719 | 0.762 | 0.786
NCI-H1734 | 0.438 | 0.438 | 0.473 | 0.461 | 0.22 | 0.196 | 0.189 | 0.186 | 0.174 | 0.272 | 0.276 | 0.274 | 0.242 | 0.232 | 0.54 | 0.62 | 0.593 | 0.586 | 
NCI-H596 | 0.43 | 0.437 | 0.381 | 0.421 |  | 0.879 | 1.04 | 0.944 | 0.756 |  | 0.741 | 0.856 | 0.779 | 0.567 | 0.578 | 0.713 | 0.679 | 0.567 | 
SW 1573 | 0.452 | 0.544 | 0.563 | 0.404 | 0.293 | 0.23 | 0.387 | 0.233 | 0.146 | 0.121 | 0.164 | 0.143 | 0.12 | 0.159 | 0.443 | 0.519 | 0.444 | 0.522 | 0.401
